Values of other authors as cited in patent US11975015B2, “Methods for treating degenerative disc disease and chronic lower back pain” (ECM Biologics, Inc., priority 2017, dated 2024).

System: chronic low back pain (CLBP)
Conditions: amoxicillin 500 mg-clavulanic acid 125 mg three times a day for 100 days; Albert 2013, Palazzo 2017

amoxicillin-clavulanic acid
treatment outcome in CLBP patients: mixed results
